Results from publication PMC12019583 (Journal of Neurochemistry, 2025).
Where “and” joins values, the source holds several entries; their conditions need not be identical. Identical values can stand only once. Like-named read-outs stand apart in the source and are kept apart here.

Columns and labels:
human SERT [1] = molecular target: T1, human SERT (Homo sapiens, UniProt P31645); assay: Whole-cell patch-clamp recordings of 5-HT-induced currents in HEK293 cells expressing human SERT; assay type: cell-based; settings: for effect on serotonin-induced inwardly directed current: 10 μM, 5-HT 10 μM
T1 sequence (P31645 whole entry, the tested form may be a part): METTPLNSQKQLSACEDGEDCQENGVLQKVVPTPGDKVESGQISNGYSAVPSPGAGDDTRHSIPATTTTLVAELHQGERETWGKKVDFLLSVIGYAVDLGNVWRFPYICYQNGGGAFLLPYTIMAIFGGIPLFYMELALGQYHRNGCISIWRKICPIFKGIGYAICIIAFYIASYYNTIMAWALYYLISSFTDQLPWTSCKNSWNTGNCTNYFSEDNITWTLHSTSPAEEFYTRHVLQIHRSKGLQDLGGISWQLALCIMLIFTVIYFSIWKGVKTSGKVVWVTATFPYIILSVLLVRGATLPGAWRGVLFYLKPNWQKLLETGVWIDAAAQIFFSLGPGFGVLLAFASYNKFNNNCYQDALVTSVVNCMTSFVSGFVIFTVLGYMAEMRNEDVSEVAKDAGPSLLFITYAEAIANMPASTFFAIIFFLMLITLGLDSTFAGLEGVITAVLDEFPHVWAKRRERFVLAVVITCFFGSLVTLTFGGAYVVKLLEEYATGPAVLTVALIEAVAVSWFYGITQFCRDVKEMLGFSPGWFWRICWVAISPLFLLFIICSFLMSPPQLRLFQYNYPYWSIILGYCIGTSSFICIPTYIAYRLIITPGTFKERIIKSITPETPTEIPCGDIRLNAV
Procedure: Whole‐cell patch‐clamp recordings were performed as recently described (Niello et al. [2023]). HEK293 cells stably expressing wild‐type GFP‐tagged human SERT were seeded at low density on poly‐D‐lysine‐coated dishes. Twenty hours after seeding, these cells were subjected to patch‐clamp recordings in the whole‐cell configuration. […] The internal solution in the patch pipette contained 133 mM potassium gluconate (CH2OH(CHOH)4COOK), 5.9 mM NaCl, 1 mM CaCl2, 0.7 mM MgCl2, 10 mM HEPES, 10 mM EGTA (pH adjusted to 7.2 with KOH). Drugs were applied using a 4‐tube ALA perfusion manifold (NPI Electronic GmbH, Germany) and a DAD‐12 superfusion system (Adams & List, Westbury, NY, USA) allowing for complete solution exchange around the cells within 100 ms. Currents were recorded via an Axopatch 200B amplifier (MDS Analytical Technologies, Sunnyvale, California) and analyzed using Clampfit 10.2 software. Passive holding currents were subtracted, and the traces were filtered using a 100 Hz digital Gaussian low‐pass filter.
(§1) The symbols represent three to four experiments performed in triplicate on different days, the error bars denote standard deviation. The red curves indicate the conditions promoting the optical switching (at a wavelength of 365 nm), the black curves indicate standard illumination. […] The rate of current recovery upon removal of (Z)‐9 from the bath solution (i.e., k off) was estimated by a fit of a monoexponential function to the current trace (see solid red line). […] Panel d: Viability assay employing trypan blue. […] PAR = paroxetine.

human SERT [2] = molecular target: T1, human SERT; assay: Uptake inhibition of [3H]5-HT in HEK293 cells stably expressing YhSERT; assay type: cell-based; settings: for IC50: [3H]5-HT uptake, read-out: SERT IC50 ± SD
Procedure: (§2) The cells were cultured in a humidified atmosphere (37°C, 5% CO2) on standard plastic culture ware. To maintain the selection pressure for the stable cell lines, 150 units/mL Geneticin was added. Cells were typically not passaged over 25 times.
(§3) After 10 min, the preincubation solution was replaced by 0.05 mL/well KHB still containing the substance of interest and tritiated substrate additionally (50 nM [^3H]MPP^+ for the YhDAT; 100 nM [^3H]5HT for the YhSERT; 30 nM [^3H]GABA for the YhGAT1, hGAT3 and YrGAT1 and 20 nM [^3H]MPP^+ for the hNET) maintaining UV light treatment/no additional light treatment. Substrate uptake was stopped after 1 min (for [^3H]5HT) or 3 min (for [^3H]GABA and [^3H]MPP^+), respectively, by exchange of the substrate‐containing buffer with 0.2 mL/well ice‐cold KHB. The KHB was aspirated immediately, and the cells were lysed in 0.2 mL 1% SDS, transferred to 6‐mL scintillation vials, and assayed for [^3H] content by liquid scintillation counting.
(§4) Data from uptake experiments were subjected to non‐linear, least squares curve fitting to equations for a rectangular hyperbola using a Marquardt–Levenberg algorithm (GraphPad Prism v.9).

hNET = hNET (Homo sapiens, UniProt P23975); assay: Uptake inhibition of [3H]MPP+ in HEK293 cells stably expressing hNET; assay type: cell-based; settings: for loss in affinity at NET in comparison with paroxetine (factor): basal light; for reduction in IC50 by optical switching at NET: basal vs 365 nm; for IC50: [3H]MPP+ uptake, read-out: NET IC50 ± SD
hNET, sequence (P23975 whole entry): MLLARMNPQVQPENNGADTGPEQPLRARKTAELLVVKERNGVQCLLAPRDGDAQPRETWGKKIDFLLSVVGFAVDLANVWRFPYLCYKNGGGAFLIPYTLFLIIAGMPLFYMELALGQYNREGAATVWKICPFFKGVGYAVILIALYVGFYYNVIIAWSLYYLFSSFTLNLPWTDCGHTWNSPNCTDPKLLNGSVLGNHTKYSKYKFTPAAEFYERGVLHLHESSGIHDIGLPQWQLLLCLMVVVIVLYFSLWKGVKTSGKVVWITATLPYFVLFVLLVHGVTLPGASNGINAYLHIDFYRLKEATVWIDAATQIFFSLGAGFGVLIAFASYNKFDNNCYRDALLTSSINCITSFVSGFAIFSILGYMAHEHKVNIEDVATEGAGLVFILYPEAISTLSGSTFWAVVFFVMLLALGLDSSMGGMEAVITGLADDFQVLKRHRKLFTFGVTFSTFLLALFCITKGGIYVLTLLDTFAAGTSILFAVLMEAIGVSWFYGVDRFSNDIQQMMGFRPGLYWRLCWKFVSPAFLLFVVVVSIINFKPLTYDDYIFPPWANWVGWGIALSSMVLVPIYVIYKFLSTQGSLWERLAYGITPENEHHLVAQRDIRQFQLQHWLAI
Procedure: as §2, §3, §4

human DAT = human DAT (Homo sapiens, UniProt Q01959); assay: Uptake inhibition of [3H]MPP+ in HEK293 cells stably expressing YhDAT; assay type: cell-based; settings: for loss in affinity at DAT in comparison with paroxetine (factor): basal light; for effect of optical switching on inhibitory potency at DAT: basal vs 365 nm; for IC50: [3H]MPP+ uptake, read-out: DAT IC50 ± SD
human DAT, sequence (Q01959 whole entry): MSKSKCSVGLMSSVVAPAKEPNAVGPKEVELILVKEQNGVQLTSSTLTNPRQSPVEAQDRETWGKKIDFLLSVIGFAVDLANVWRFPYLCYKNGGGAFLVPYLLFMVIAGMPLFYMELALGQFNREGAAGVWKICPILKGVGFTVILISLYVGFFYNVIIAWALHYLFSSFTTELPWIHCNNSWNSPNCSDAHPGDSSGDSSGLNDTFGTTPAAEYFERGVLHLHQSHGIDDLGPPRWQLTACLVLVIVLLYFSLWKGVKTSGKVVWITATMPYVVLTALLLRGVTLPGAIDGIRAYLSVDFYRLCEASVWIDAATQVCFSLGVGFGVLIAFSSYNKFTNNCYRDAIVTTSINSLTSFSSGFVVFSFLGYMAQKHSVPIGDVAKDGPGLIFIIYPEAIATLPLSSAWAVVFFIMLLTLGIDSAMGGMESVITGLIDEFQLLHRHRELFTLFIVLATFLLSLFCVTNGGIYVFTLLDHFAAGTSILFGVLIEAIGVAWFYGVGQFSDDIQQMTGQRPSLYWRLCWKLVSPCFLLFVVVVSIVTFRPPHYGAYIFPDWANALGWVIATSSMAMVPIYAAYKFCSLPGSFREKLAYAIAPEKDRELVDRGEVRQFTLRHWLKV
Procedure: as §2, §3, §4

rat GAT1 = molecular target: T2, rat GAT1 (Rattus norvegicus, UniProt P23978); assay: Uptake inhibition of [3H]GABA in HEK293 cells expressing YrGAT1; assay type: cell-based; settings: for IC50: [3H]GABA uptake, read-out: rGAT IC50 ± SD
T2 construct: expressed in transfected cells
Procedure: as §2, §3, §4

human GAT1 = molecular target: T3, human GAT1 (Homo sapiens, UniProt P30531); assay: Uptake inhibition of [3H]GABA in HEK293 cells expressing YhGAT1; assay type: cell-based; settings: for IC50: [3H]GABA uptake, read-out: hGAT1 IC50 ± SD
T3 construct: expressed in transfected cells; host or cells: HEK293
T3 sequence (P30531 whole entry): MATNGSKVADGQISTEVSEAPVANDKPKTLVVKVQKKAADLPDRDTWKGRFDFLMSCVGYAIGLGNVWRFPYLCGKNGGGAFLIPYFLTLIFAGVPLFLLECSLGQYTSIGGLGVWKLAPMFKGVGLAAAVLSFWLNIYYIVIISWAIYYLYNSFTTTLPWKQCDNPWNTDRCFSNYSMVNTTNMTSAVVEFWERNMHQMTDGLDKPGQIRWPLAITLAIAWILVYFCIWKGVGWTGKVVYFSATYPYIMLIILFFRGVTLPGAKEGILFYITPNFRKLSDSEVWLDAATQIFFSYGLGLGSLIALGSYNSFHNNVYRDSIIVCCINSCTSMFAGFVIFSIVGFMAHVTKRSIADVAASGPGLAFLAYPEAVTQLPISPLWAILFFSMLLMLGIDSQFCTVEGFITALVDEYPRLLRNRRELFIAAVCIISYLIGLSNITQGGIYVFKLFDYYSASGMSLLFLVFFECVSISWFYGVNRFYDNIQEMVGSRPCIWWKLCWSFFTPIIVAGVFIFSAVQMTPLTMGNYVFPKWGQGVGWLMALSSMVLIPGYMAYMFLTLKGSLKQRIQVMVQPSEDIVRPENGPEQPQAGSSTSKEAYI
Procedure: as §2, §3, §4

human GAT3 = molecular target: T4, human GAT3 (Homo sapiens, UniProt P48066); assay: Uptake inhibition of [3H]GABA in HEK293 cells expressing hGAT3; assay type: cell-based; settings: for IC50: [3H]GABA uptake, read-out: hGAT3 IC50 ± SD
T4 construct: expressed in transfected cells; host or cells: HEK293
T4 sequence (P48066 1-632): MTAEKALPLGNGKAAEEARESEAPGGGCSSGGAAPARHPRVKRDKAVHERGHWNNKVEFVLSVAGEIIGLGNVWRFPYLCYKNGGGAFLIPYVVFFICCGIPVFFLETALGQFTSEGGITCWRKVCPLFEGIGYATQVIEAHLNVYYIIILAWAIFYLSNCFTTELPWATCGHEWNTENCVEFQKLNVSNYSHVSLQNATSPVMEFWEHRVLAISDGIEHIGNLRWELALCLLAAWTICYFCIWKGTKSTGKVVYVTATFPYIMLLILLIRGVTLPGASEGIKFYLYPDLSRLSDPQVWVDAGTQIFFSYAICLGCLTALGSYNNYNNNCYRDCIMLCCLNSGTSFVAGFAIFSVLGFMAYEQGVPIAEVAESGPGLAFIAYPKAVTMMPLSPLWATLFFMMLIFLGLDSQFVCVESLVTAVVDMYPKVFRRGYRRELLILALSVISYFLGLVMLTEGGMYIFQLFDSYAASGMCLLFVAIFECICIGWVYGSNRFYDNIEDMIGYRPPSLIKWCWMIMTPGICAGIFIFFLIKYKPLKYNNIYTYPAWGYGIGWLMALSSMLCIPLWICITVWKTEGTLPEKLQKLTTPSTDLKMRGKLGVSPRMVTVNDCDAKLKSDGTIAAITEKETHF
Procedure: as §2, §3, §4

HEK293 cells = assay: Viability assay employing trypan blue; assay type: cell-based, human; settings: dose-dependent, up to high concentrations, DMSO positive control
From the text: as §1

[3] = UHPLC-TOF-MS quantification of (E)/(Z) isomer content in photostationary state; assay type: physicochemical; settings: after irradiation 365 nm 30 s; 10 μM; several solvents (DMSO and aqueous)
Procedure: Additionally, quantification measurements with UHPLC‐TOF‐MS were conducted to determine the efficiency of the (E) to (Z) isomerization of azo‐paroxetine. […] Moreover, biological uptake inhibition assay conditions were mimicked during the switching experiments by choosing respective solvents and sample concentrations. Samples representing the dark state were taken before irradiation, samples representing the (Z)‐state were obtained after irradiation with […] (intensity 600 mW/cm^2 10 mm focusing lens, λ 365 nm) for 30 s. […] Bandara and Burdette [2012]). […] Switching concentration 10 μM, concentration in UHPLC‐TOF‐MS sample 1 μM, UHPLC‐TOF‐MS sample preparation with water/acetonitrile 90/10.

[4] = Thermal (Z)/(E) isomerization half-life by UV/Vis; assay type: physicochemical; settings: (Z)-isomer; 50 μM in dry DMSO, 23 °C; read-out: half-life time of thermal (Z)/(E) isomerization (converted)
Procedure: The rough experimental half-life time of the ( Z)-isomer of compound 9 was determined on a UV-1800 UV/Vis spectrophotometer from Shimadzu at 23 °C. A 50 μM sample of the compound in dry DMSO was irradiated with 365 nm for 5 seconds using the respective OmniCure® LED head at 100% power. Once the highest possible (Z)-isomer content was reached, the absorption at 331 nm, the ( E)-isomer’s absorption maximum l max, was regularly measured over the course of 12 hours. […]
of the thermal ( Z)/(E) isomerization.
A mathematical fitting function was used to linearize the obtained absorption data over time according to Equation S1.
AAllllllllllllllllllll = ln (AAmmllmm − AAtt )
Equation S1. Linear fit used for absorption AA .
The linearized absorption value gained by equation S1 was plotted over time and a linear fit function was applied. The obtained fit function gave the rate constant k as its slope value.
Next, the half- life time was calculated according to Equation S2. The resulting graph is shown […]
Equation S2. Calculation of half-life ττ1/2 time from rate constant kk .
This method of thermal half- life time determination wa s sufficiently precise for the […]
been shown (Singer et al, 2023) to yield similar results as compiling an Eyring plot for half-life time determination without the compound relax ing back to nearly 100% (E)-isomer.
Graph S1. […]

NET = molecular target: NET; design: method as in Kristensen et al. [2011]; Owens et al. [2001]; settings: ref Kristensen et al. [2011]; Owens et al. [2001]; cited from earlier work

c1ccc(/N=N/c2ccc([C@@H]3CCNC[C@H]3COc3ccc4c(c3)OCO4)cc2)cc1 [(E)‐azo‐paroxetine (9)]
effect on serotonin-induced inwardly directed current (human SERT [1]; (E)-isomer, standard light): marginal blockade

c1ccc(/N=N/c2ccc([C@@H]3CCNC[C@H]3COc3ccc4c(c3)OCO4)cc2)cc1 [Azo‐paroxetine (9)]
loss in affinity at SERT in comparison with parent compound paroxetine (factor) (human SERT [2]; basal light): 171 fold
IC50 (human SERT [2]; λ 365 nm (PSS, mainly (Z)-isomer)): 0.76 ± 0.18 µM
IC50 (human SERT [2]; λ basal (standard light, (E)-isomer)): 9.23 ± 3.06 µM
loss in affinity at NET in comparison with paroxetine (factor) (hNET; listed as azo‐paroxetine): ~ 5
loss in affinity at NET in comparison with paroxetine (factor) (hNET; listed as azo‐paroxetine (9)): 2 to 5
reduction in IC50 by optical switching at NET (hNET; listed as azo‐paroxetine): 2 to 3 fold
reduction in IC50 by optical switching at NET (hNET; listed as azo‐paroxetine (9)): ~threefold
IC50 (hNET; λ 365 nm): 5.41 ± 3.32 µM
IC50 (hNET; λ basal): 15.4 ± 4.04 µM
loss in affinity at DAT in comparison with paroxetine (factor) (human DAT; listed as azo‐paroxetine): ~ 3.7
loss in affinity at DAT in comparison with paroxetine (factor) (human DAT; listed as azo‐paroxetine (9)): 2 to 5
effect of optical switching on inhibitory potency at DAT (human DAT; listed as azo‐paroxetine): 2 to 3 fold
effect of optical switching on inhibitory potency at DAT (human DAT; listed as azo‐paroxetine (9)): 1.7 fold
IC50 (human DAT; λ 365 nm): 3.77 ± 0.79 µM
IC50 (human DAT; λ basal): 6.33 ± 2.06 µM
improvement of affinity at rat GAT1 relative to paroxetine (rat GAT1): around two to three‐fold
IC50 (rat GAT1; λ 365 nm): 126 ± 20.6 µM
IC50 (rat GAT1; λ basal): 88.9 ± 11.8 µM
IC50 (human GAT1; λ 365 nm): 107 ± 15 µM
IC50 (human GAT1; λ basal): 80.8 ± 21.6 µM
IC50 (human GAT3; λ 365 nm): 90.5 ± 24.4 µM
IC50 (human GAT3; λ basal): 55 ± 16.4 µM
koff (human SERT [1]; HEK293, photoequilibrated (365 nm) state, n = 5, read-out: off-rate (k off)): 0.18 ± 0.031 s⁻¹
effect on serotonin-induced inwardly directed current (human SERT [1]; photoequilibrated (365 nm)): completely abolished the inwardly directed current
cellular toxicity effects (trypan blue viability) (HEK293 cells; listed as azo‐paroxetine): did not find any significant toxic impact
(Z)-isomer content in photostationary state [3]: 83%–87% and 83%
half-life at 50 μM [4]: 156 h

Fc1ccc([C@@H]2CCNC[C@H]2COc2ccc3c(c2)OCO3)cc1 [Paroxetine, paroxetine, reference compound]
IC50 (rat GAT1; λ basal): 264 ± 140 µM
IC50 (human GAT1; λ basal): 122 ± 81 µM
IC50 (human GAT3; λ basal): 51 ± 3.7 µM
Ki (NET): 0.156 ± 0.029 µM

azobenzene [reference compound]
inhibitory effect on [3H]5-HT uptake at human SERT (human SERT [2]; concentrations up to 1 mM, basal and 365 nm): could not really observe any significant inhibitory effects
inhibition of GABA uptake at rat GAT1 (rat GAT1; (E)-configuration): comparable to the value of the human GAT1
inhibition of GABA uptake at human GAT1 (human GAT1; (E)-configuration, up to 1 mM): up to 40%
inhibition of GABA uptake at human GAT3 (human GAT3; up to 1 mM): more than 60%
cellular toxicity effects (trypan blue viability) (HEK293 cells): neither azo‐paroxetine (9) nor azobenzene
